Reference: ChEMBL document CHEMBL5137114, “Discovery of IHMT-MST1-58 as a Novel, Potent, and Selective MST1 Inhibitor for the Treatment of Type 1/2 Diabetes” (J Med Chem, 2022)

What was measured:
[1] = target: T1, Serine/threonine-protein kinase 4 (Homo sapiens, UniProt Q13043); assay: Inhibition of recombinant full length N-terminal GST -tagged human MST1 expressed in baculovirus infected Sf9 insect cells using KKSRGDYMTMQIG as substrate incubated for 1 hr in presence of ATP by ADP-Glo luminescent assay
T1 sequence (Q13043 whole entry): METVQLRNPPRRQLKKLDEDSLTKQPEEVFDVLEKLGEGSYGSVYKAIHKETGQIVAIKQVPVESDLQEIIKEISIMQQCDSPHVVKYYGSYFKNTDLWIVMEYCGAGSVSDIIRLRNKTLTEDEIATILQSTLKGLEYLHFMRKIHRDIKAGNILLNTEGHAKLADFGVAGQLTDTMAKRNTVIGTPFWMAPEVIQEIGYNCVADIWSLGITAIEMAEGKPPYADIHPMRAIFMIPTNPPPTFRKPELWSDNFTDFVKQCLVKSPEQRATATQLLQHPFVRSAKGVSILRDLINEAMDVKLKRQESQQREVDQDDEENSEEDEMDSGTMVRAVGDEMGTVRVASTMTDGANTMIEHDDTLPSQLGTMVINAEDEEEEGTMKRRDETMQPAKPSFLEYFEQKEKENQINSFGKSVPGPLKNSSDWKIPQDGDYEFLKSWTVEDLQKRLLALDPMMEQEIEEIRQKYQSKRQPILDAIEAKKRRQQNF

[2] = tested on: RAW264.7; assay: Inhibition of MST1 in mouse RAW264.7 cells assessed as reduction in H2O2-stimulated MOB1 phosphorylation at T35 residue preincubated for 2 hrs followed by H2O2 addition for 30 mins by Western blotting analysis; type: cell-based; conditions: dose 0.1-10 µM, time 2.5 hrs, DDE = dose-dependent effect
[3] = tested on: RAW264.7; assay: Inhibition of MST1 in mouse RAW264.7 cells assessed as reduction in H2O2-stimulated MST1/MST2 autophosphorylation at T183/T180 residues preincubated for 2 hrs followed by H2O2 addition for 30 mins by Western blotting analysis; type: cell-based; conditions: dose 0.1-10 µM, time 2.5 hrs, DDE = dose-dependent effect

**Q.** How did the IC50 [1] turn out when `Cc1ccccc1C1C(=O)N(C)c2cnc(Nc3ccc(C4(C#N)CC4)cc3)nc2N1C` (stereo not given) was run?
**A.** The IC50 was 256 nM.

**Q.** For `CN1CC(=O)N(C)c2cnc(Nc3ccc(S(N)(=O)=O)cc3)nc21`, which IC50 [1] is on record?
**A.** Its IC50 is 495 nM.

**Q.** With `CN1C(=O)C(c2ccccc2Cl)N(C)c2nc(Nc3ccc(S(N)(=O)=O)cc3)ncc21` (stereo not given) as the molecule, how does the IC50 [1] read?
**A.** The IC50 was 129 nM.

**Q.** `Cc1ccc(F)cc1C1C(=O)N(C)c2cnc(Nc3ccc(S(N)(=O)=O)cc3)nc2N1C` (stereo not given) was tested. Which IC50 [1] did it give?
**A.** The IC50 was 168 nM.

**Q.** How did the IC50 [1] turn out when `CN1C(=O)C(c2ccc(F)cc2)N(C)c2nc(Nc3ccc(S(N)(=O)=O)cc3)ncc21` (stereo not given) was run?
**A.** The IC50 was 1770 nM.

**Q.** `CN1C(=O)C(c2c(F)cccc2F)N(C)c2nc(Nc3ccc(S(=O)(=O)N(C)C)cc3)ncc21` (stereo not given) was tested. Which IC50 [1] did it give?
**A.** The IC50 was 181 nM.

**Q.** What does the source list for `CN1C(=O)c2sccc2N(C)c2nc(Nc3ccc(S(N)(=O)=O)cc3)ncc21`?
**A.** IC50 [1]: 104 nM; inhibition [2]: Dde; inhibition [3]: Dde

**Q.** Which IC50 [1] does the source give for `CNS(=O)(=O)c1ccc(Nc2ncc3c(n2)N(C)C(c2ccccc2C)C(=O)N3C)cc1` (stereo not given) here?
**A.** The IC50 was 104 nM.

**Q.** With `CN1C(=O)C(c2ccccc2)N(C)c2nc(Nc3ccc(S(N)(=O)=O)cc3)ncc21` (stereo not given) as the molecule, how does the IC50 [1] read?
**A.** The IC50 was 383 nM.

**Q.** For `CN1C(=O)C(Cc2ccccc2)N(C)c2nc(Nc3ccc(S(N)(=O)=O)cc3)ncc21` (stereo not given), which IC50 [1] is on record?
**A.** Its IC50 is over 10000 nM.

**Q.** How did the IC50 [1] turn out when `CCc1ccccc1C1C(=O)N(C)c2cnc(Nc3ccc(S(N)(=O)=O)cc3)nc2N1C` (stereo not given) was run?
**A.** The IC50 was 51 nM.

**Q.** `CN1C(=O)C(CC2CC2)N(C)c2nc(Nc3ccc(S(N)(=O)=O)cc3)ncc21` (stereo not given) was tested. Which IC50 [1] did it give?
**A.** The IC50 was 211 nM.

**Q.** How did the IC50 [1] turn out when `Cc1ccccc1C1C(=O)N(C)c2cnc(Nc3ccc(S(=O)(=O)N(C)C)cc3)nc2N1C` (stereo not given) was run?
**A.** Its IC50 is 219 nM.

**Q.** How did the IC50 [1] turn out when `Cc1c(F)cccc1C1C(=O)N(C)c2cnc(Nc3ccc(S(N)(=O)=O)cc3)nc2N1C` (stereo not given) was run?
**A.** The IC50 was 419 nM.

**Q.** Which IC50 [1] does the source give for `CN1C(=O)C2(CCCCC2)N(C)c2nc(Nc3ccc(S(N)(=O)=O)cc3)ncc21` here?
**A.** Its IC50 is 272 nM.

**Q.** `CCC1C(=O)N(C)c2cnc(Nc3ccc(S(N)(=O)=O)cc3)nc2N1C` (stereo not given) was tested. Which IC50 [1] did it give?
**A.** Its IC50 is 479 nM.

**Q.** With `COc1cccc(C2C(=O)N(C)c3cnc(Nc4ccc(S(N)(=O)=O)cc4)nc3N2C)c1` (stereo not given) as the molecule, how does the IC50 [1] read?
**A.** Its IC50 is 954 nM.

**Q.** For `Cc1ccccc1C1C(=O)N(C)c2cnc(Nc3ccc(S(=O)(=O)NC4CC4)cc3)nc2N1C` (stereo not given), which IC50 [1] is on record?
**A.** The IC50 was 53 nM.

**Q.** How did the IC50 [1] turn out when `CC(C)C1C(=O)N(C)c2cnc(Nc3ccc(S(N)(=O)=O)cc3)nc2N1C` (stereo not given) was run?
**A.** The IC50 was 254 nM.

**Q.** `COc1ccccc1C1C(=O)N(C)c2cnc(Nc3ccc(S(N)(=O)=O)cc3)nc2N1C` (stereo not given) was tested. Which IC50 [1] did it give?
**A.** The IC50 was 251 nM.

**Q.** `CCNS(=O)(=O)c1ccc(Nc2ncc3c(n2)N(C)C(c2ccccc2C)C(=O)N3C)cc1` (stereo not given) was tested. Which IC50 [1] did it give?
**A.** The IC50 was 119 nM.

**Q.** How did the IC50 [1] turn out when `Cc1ccccc1C1C(=O)N(C)c2cnc(Nc3ccc(S(=O)(=O)NCC4CC4)cc3)nc2N1C` (stereo not given) was run?
**A.** The IC50 was 60 nM.

**Q.** With `CN1C(=O)C(c2cccc(C(F)(F)F)c2)N(C)c2nc(Nc3ccc(S(N)(=O)=O)cc3)ncc21` (stereo not given) as the molecule, how does the IC50 [1] read?
**A.** Its IC50 is 2710 nM.

**Q.** `CN1C(=O)C(c2ccccc2Br)N(C)c2nc(Nc3ccc(S(N)(=O)=O)cc3)ncc21` (stereo not given) was tested. Which IC50 [1] did it give?
**A.** The IC50 was 57 nM.

**Q.** For `CNS(=O)(=O)c1ccc(Nc2ncc3c(n2)N(C)C(c2c(F)cccc2F)C(=O)N3C)cc1` (stereo not given), which IC50 [1] is on record?
**A.** Its IC50 is 318 nM.

**Q.** `Cc1ccccc1C1C(=O)N(C)c2cnc(Nc3ccc(C(C)(C)C#N)cc3)nc2N1C` (stereo not given) was tested. Which IC50 [1] did it give?
**A.** Its IC50 is 153 nM.

**Q.** `CC1C(=O)N(C)c2cnc(Nc3ccc(S(N)(=O)=O)cc3)nc2N1C` (stereo not given) was tested. Which IC50 [1] did it give?
**A.** Its IC50 is 313 nM.

**Q.** How did the IC50 [1] turn out when `CN1C(=O)C(c2cccc(Cl)c2)N(C)c2nc(Nc3ccc(S(N)(=O)=O)cc3)ncc21` (stereo not given) was run?
**A.** Its IC50 is 989 nM.
